Assay results: US8735323B2, “Fungicide N-5-membered fused heteroaryl-methylene-N-cycloalkyl-carboxamide derivatives” (Bayer Cropscience AG, priority 2007, dated 2014)

Experiment: logP determination by HPLC on reversed-phase column (C 18), EEC Directive 79/831 Annex V.A8
Assay type: physicochemical
Settings: C 18 reversed-phase, 40° C., 0.1% aqueous formic acid and acetonitrile gradient
Method: In the following table, the logP values were determined in accordance with EEC Directive 79/831 Annex V.A8 by HPLC (High Performance Liquid Chromatography) on a reversed-phase column (C 18), using the method described below: Temperature: 40° C.; Mobile phases: 0.1% aqueous formic acid and acetonitrile; linear gradient from 10% acetonitrile to 90% acetonitrile. Calibration was carried out using unbranched alkan-2-ones (comprising 3 to 16 carbon atoms) with known logP values (determination of the logP values by the retention times using linear interpolation between two successive alkanones).

## CCc1nn(C)c(F)c1C(=O)N(Cc1cn(-c2ccccc2)c2ccccc12)C1CC1 [Compound 29]
  LogP: 3.89
